Experimental findings from patent US11512089B2, “Substituted [1,2,4]triazolo[3,4-a]phthalazines as modulators of GABAA receptor activity” (SHANGHAI SIMR BIOTECHNOLOGY CO., LTD, priority 2018, dated 2022) are described below.

Structures are written as SMILES. Values after ≈ are worked out from the molar mass of the structure shown.

The target in the first data set is T1, α5-GABAA receptor (Homo sapiens, UniProt P18507+P31644).
T1 construct: expressed in transfected cells; host or cells: HEK-293 (monoclonal, stably transfected)
T1 sequence (P31644 32-462): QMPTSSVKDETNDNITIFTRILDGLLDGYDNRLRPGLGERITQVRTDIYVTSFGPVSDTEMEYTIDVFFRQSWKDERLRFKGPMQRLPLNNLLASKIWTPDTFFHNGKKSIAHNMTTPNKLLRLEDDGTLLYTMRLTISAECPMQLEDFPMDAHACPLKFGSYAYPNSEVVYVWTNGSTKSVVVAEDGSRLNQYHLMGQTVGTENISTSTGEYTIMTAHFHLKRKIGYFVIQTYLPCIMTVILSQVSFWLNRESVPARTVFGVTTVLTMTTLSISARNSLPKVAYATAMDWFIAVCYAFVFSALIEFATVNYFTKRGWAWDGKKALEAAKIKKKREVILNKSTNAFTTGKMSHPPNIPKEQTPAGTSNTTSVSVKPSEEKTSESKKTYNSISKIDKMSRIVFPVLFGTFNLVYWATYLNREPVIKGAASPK
T1 sequence (P28472 26-473 partner): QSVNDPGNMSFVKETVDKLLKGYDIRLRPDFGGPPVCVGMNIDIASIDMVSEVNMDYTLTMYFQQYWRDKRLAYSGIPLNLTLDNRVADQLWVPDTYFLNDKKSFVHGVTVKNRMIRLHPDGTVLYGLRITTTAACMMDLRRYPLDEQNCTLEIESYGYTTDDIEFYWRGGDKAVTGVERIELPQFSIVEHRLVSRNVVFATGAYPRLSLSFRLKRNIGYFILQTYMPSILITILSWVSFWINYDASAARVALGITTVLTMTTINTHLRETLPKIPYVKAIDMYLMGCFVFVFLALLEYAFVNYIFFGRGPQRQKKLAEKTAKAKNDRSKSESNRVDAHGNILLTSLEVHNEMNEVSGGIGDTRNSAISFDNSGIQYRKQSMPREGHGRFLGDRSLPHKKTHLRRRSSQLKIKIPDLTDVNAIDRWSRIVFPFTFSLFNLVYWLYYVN
T1 sequence (P18507 40-467 isoform P18507-1 limits assumed): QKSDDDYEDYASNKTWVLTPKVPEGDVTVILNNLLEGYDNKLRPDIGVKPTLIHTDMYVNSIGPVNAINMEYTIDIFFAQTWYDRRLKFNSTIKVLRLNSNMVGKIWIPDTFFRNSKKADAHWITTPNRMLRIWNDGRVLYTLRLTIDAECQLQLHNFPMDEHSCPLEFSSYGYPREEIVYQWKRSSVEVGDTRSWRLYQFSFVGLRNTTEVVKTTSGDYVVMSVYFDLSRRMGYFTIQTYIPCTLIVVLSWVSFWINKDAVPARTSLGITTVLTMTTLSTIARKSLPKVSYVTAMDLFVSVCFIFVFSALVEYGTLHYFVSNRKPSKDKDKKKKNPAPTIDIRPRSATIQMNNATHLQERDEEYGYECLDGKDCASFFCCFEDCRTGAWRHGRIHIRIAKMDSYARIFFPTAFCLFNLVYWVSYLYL
Briefly: Whole cell patch clamp, inverse agonism efficacy on GABA-induced current in HEK-293 cells expressing α5-GABAA receptor. Conditions: HEK293; compound 100 nM, GABA 0.05 μM; ratio to reference compound Example 7 in CN106854207A in the same batch. Type of data set: cell-based. On the procedure:
The inventors used electrophysiological methods to determine the inverse agonist efficacy of the substances to be tested. The detailed procedures are as follows:
(1) Different subunits of GABAA receptors were expressed in human embryonic kidney cells 293 (HEK293). The cells were cultured in a culture medium and used as a cell model for screening potential analgesics. The α, β and γ subunits are necessary to form complete functional GABAA receptors. In this example, the inventors have established the following cell model: (a) α5 subunit (protein sequence is GenBank accession number: NM_000810.3), (33 subunit (protein sequence is GenBank accession number: NM_000814.5) and γ2 subunit (protein sequence is GenBank accession number: NM_000816.3) were expressed in HEK-293 cell line at the same time, followed by screening the monoclonal cell line. This cell line contained α5-GABAA receptor and had complete GABAA receptor function.
(2) The monoclonal stably transfected HEK-293 cells expressing α5-GABAA receptor were cultured in 10 cm culture dishes. The cells were passaged after reaching 80-90% confluence. During passaging, the culture medium was removed and discarded, 3 mL of DPBS (phosphate buffered saline, Gibco™) was added to the dishes, the dishes were shaken slightly, and DPBS was removed and discarded. 1 mL of trypsin (TrypLE Express, Gibco™) was added and the cells were digested at 37° C. for 1-2 minutes. Then 3 mL of complete medium (DMEM+10% FBS (Gibco™)) was added and the cells at the bottom of the culture dishes were dispersed. The cell suspension were transferred to a 15 mL centrifugal tube (Corning™) and then centrifuged at 200 g for 3 minutes. The supernatant was discarded, 4 mL of complete medium was added, and the cells were resuspended by gently blowing. The cell suspension was diluted by 1:5 or 1:10 for subculturing. The cell suspension was diluted by 1:12 for electrophysiology experiment, and added to a 24 well plate (Corning™) with a glass slide pre-treated with poly-D-lysine placed thereon; the experiment was initiated after the cells were adhered to the slide. The cells for electrophysiology experiment were maintained in culture for no more than 48 hours before use.
(3) Compound concentration: for screening, all compounds were diluted to a final concentration of 100 nM and the concentration of GABA was 0.05 μM. The compounds were at the concentration of 0.3 nM, 3 nM, 10 nM, 30 nM, 100 nM and 300 nM in dose-inverse agonism efficacy (%) experiment. The whole cell patch clamp technique was used in electrophysiology experiments, which can refer to the literature (I. Lecker, Y. Yin, D. S. Wang and B. A. Orser, (2013) Potentiation of GABAA receptor activity by volatile anaesthetics is reduced by α5-GABAA receptor-preferring inverse agonists, British Journal of Anaesthesia 110 (S1): i73-i81). The extracellular solution (ECS) contained: 150 mM NaCl, 5 mM KCl, 2.5 mM CaCl2, 1 mM MgCl2, 10 mM HEPES and 10 mM glucose (pH 7.4); Patch electrodes were filled with an intracellular solution containing: 140 mM CsCl, 11 mM EGTA, 10 mM HEPES, 2 mM CaCl2, 1 mM MgCl2, 4 mM MgATP, 2 mM TEA (pH 7.3). The currents were recorded by an EPC-10 amplifier and the PatchMaster software (HEKA). Patch electrodes with a resistance of 4-6 MΩ were pulled from borosilicate glass. The ALA-VC3-8PP™ system was used for extracellular administration. Separate cells that grew independently was selected for recording. During recording, the membrane voltage was clamped at −60 mV. During experiment, the cells were firstly perfused with ECS for 20 seconds. When the baseline reached to a stable state, the cells were then perfused with GABA solution. Then the current induced by GABA could be detected. After about 20 to 40 seconds, the current was stable. ECS was switched to compounds solution and the effects of the compounds were detected. At last, the perfusion solution was switched to ECS. […]
Usually Emax stands for the size of the effect at its maximum, as opposed to the concentration needed. Take `COCc1cc(-c2nnc3c4ccccc4c(OCc4ccc(C(=O)NC5CC(F)(F)C5)cn4)nn23)no1` [Compound 03, N-(3,3-difluoro-cyclobutyl)-6-[3-(5-methoxymethyl-isoxazol-3-yl)-[1,2,4]triazolo[3,4-a]phthalazin-6-yloxymethyl]-nicotinamide]: the Emax at 0.1 µM stood at 92.1%.

On to `COCCCNC(=O)c1ccc(COc2nn3c(-c4cc(COC)on4)nnc3c3ccccc23)nc1` [Compound 08, 6-[3-(5-methoxymethyl-isoxazol-3-yl)-[1,2,4]triazolo[3,4-a]phthalazin-6-yloxymethyl]-N-(3-methoxy-propyl)-nicotinamide], for which the Emax at 0.1 µM turned out to be 110%.

Take `COCc1cc(-c2nnc3c4ccccc4c(OCc4ccc(C(=O)NC5COC5)cn4)nn23)no1` [Compound 17, 6-[3-(5-methoxymethyl-isoxazol-3-yl)-[1,2,4]triazolo[3,4-a]phthalazin-6-yloxymethyl]-N-oxetan-3-yl-nicotinamide]: the Emax at 0.1 µM is 105%.

Turning to `COCc1cc(-c2nnc3c4ccccc4c(OCc4ccc(C(=O)N5CC(F)(F)C5)cn4)nn23)no1` [Compound 46, (3,3-difluoroazetidin-1-yl)(6-(((3-(5-(methoxymethyl)isoxazol-3-yl)[1,2,4]triazolo[3,4-a]phthalazin-6-yl)oxy)methyl)pyridin-3-yl)methanone], the Emax at 0.1 µM was determined as 94.6%.

Test system in another data set: not listed separately
Briefly: Kinetic solubility in 50 mM phosphate buffer pH 7.4. It is filed as physicochemical. Conditions: aqueous buffer, kinetic from dmso stock, 50 mM phosphate buffer pH 7.4, 2% DMSO, room temperature. On the procedure: 50 mM phosphate buffer pH=7.4: 0.39 g of NaH2PO4.2H2O, and 1.4025 g of Na2HPO4 were weighted and placed in an erlenmeyer flask, 240 mL of water was added. The solid was dissolved and mixed thoroughly, the pH value was adjusted to 7.4 with 10M NaOH solution, and the resulting solution was transferred to a 250 mL volumetric flask, followed by adding water to the mark.
Waters e2695 HPLC high performance liquid chromatography, Mettler XSE105 analytical balance.
Firstly, a 10 mM stock solution with DMSO as the solvent was prepared, and was diluted with a diluent (ACN: PB buffer 50:50) into 1 μM-200 μM as standard solution.
Kinetic solubility. 30 μL of the stock solution was placed in a 2 mL centrifuge tube, 1470 μL of 50 mM phosphate buffer (pH 7.4) (containing DMSO at a final concentration of 2%) was added. The mixture was shaken at room temperature (1000 rpm/min) for 24 hours, and then filtered. The filtrate was tested by high performance liquid chromatography (UV).
What is called kinetic solubility is solubility judged after dilution from a stock solution rather than from solid. Compound `COCc1cc(-c2nnc3c4ccccc4c(OCc4ccc(C(=O)NC5CCOCC5)cn4)nn23)no1` [Compound 04, 6-[3-(5-methoxymethyl-isoxazol-3-yl)-[1,2,4]triazolo[3,4-a]phthalazin-6-yloxymethyl]-N-(tetrahydro-pyran-4-yl)-nicotinamide] gave a kinetic solubility at 24 h of 13.1 µg/mL (≈ 25.5 µM).

`COCc1cc(-c2nnc3c4ccccc4c(OCc4ccc(C(=O)N[C@H](C)COC)cn4)nn23)no1` [Compound 09, (R)—N-(2-methoxy-1-methyl-ethyl)-6-[3-(5-methoxymethyl-isoxazol-3-yl)-[1,2,4]triazolo[3,4-a]phthalazin-6-yloxymethyl]-nicotinamide] gave a solubility (kinetic) at 24 h of 27.7 µg/mL (≈ 55 µM).

In the case of `COCc1cc(-c2nnc3c4ccccc4c(OCc4ccc(C(=O)NCCOC(F)(F)F)cn4)nn23)no1` [Compound 13, 6-[3-(5-methoxymethyl-isoxazol-3-yl)-[1,2,4]triazolo[3,4-a]phthalazin-6-yloxymethyl]-N-(2-trifluoromethoxy-ethyl)-nicotinamide], the kinetic solubility at 24 h stood at 0.57 µg/mL (≈ 1.05 µM).

As to `COCc1cc(-c2nnc3c4ccccc4c(OCc4ccc(C(=O)NC(C)(C)COC)cn4)nn23)no1` [Compound 14, N-(2-methoxy-1,1-dimethyl-ethyl)-6-[3-(5-methoxymethyl-isoxazol-3-yl)-[1,2,4]triazolo[3,4-a]phthalazin 6-yloxymethyl]-nicotinamide], the solubility (kinetic) at 24 h was determined as 35.7 µg/mL (≈ 68.9 µM).

As for `COCc1cc(-c2nnc3c4ccccc4c(OCc4ccc(C(=O)NCCO)cn4)nn23)no1` [Compound 16, N-(2-hydroxy-ethyl)-6-[3-(5-methoxymethyl-isoxazol-3-yl)-[1,2,4]triazolo[3,4-a]phthalazin-6-yloxymethyl]-nicotinamide], the solubility (kinetic) at 24 h amounted to 49.4 µg/mL (≈ 104 µM).

For `COCc1cc(-c2nnc3c4ccccc4c(OCc4ccc(C(=O)NC5(C#N)CC5)cn4)nn23)no1` [Compound 19], the solubility (kinetic) at 24 h came to 1.06 µg/mL (≈ 2.14 µM). Against the preceding compound, the solubility kinetic at 24 h is about 47-fold lower.

`COCc1cc(-c2nnc3c4ccccc4c(OCc4ccc(C(=O)NC5CC(F)C5)cn4)nn23)no1` (stereo not shown) [Compound 21]: the solubility (kinetic) at 24 h worked out at 1.18 µg/mL (≈ 2.34 µM).

In turn, `COCc1cc(-c2nnc3c4ccccc4c(OCc4ccc(C(=O)NCCF)cn4)nn23)no1` [Compound 22] yielded a kinetic solubility at 24 h of 8.92 µg/mL (≈ 18.7 µM).

With `COCc1cc(-c2nnc3c4ccccc4c(OCc4ccc(C(=O)NCC(F)(F)CO)cn4)nn23)no1` [Compound 25], the kinetic solubility at 24 h stood at 2.71 µg/mL (≈ 5.16 µM). Against the preceding compound, the solubility kinetic at 24 h is about 3.3-fold lower.

Take `COCc1cc(-c2nnc3c4ccccc4c(OCc4ccc(C(=O)NC5CCOC5)cn4)nn23)no1` (stereo not shown) [Compound 26, 6-[3-(5-methoxymethyl-isoxazol-3-yl)-[1,2,4]triazolo[3,4-a]phthalazin-6-yloxymethyl]-N-(tetrahydrofuran-3-yl)-nicotinamide]: the kinetic solubility at 24 h is 20.3 µg/mL (≈ 40.6 µM).

In the case of `COCc1cc(-c2nnc3c4ccccc4c(OCc4ccc(C(=O)NC(C)C(F)(F)F)cn4)nn23)no1` (stereo not shown) [Compound 27], the kinetic solubility at 24 h is 5.58 µg/mL (≈ 10.6 µM).

For `COCc1cc(-c2nnc3c4ccccc4c(OCc4ccc(C(=O)NC5CCC(F)(F)CC5)cn4)nn23)no1` [Compound 33], the kinetic solubility at 24 h came to 2.99 µg/mL (≈ 5.44 µM).

For the compound `COCc1cc(-c2nnc3c4ccccc4c(OCc4ccc(C(=O)NC5CCC(F)(F)C5)cn4)nn23)no1` (stereo not shown) [Compound 35], the kinetic solubility at 24 h worked out at 5.62 µg/mL (≈ 10.5 µM). Against the preceding compound, the solubility kinetic at 24 h is about 1.9-fold higher.

`COCc1cc(-c2nnc3c4ccccc4c(OCc4ccc(C(N)=O)cn4)nn23)no1` [Compound 36] showed a solubility (kinetic) at 24 h of 0.8 µg/mL (≈ 1.85 µM).

On to `COCc1cc(-c2nnc3c4ccccc4c(OCc4ccc(C(=O)N5CC(O)C5)cn4)nn23)no1` [Compound 41], for which the kinetic solubility at 24 h came out at 6.57 µg/mL (≈ 13.5 µM).

As for `COCc1cc(-c2nnc3c4ccccc4c(OCc4ccc(C(=O)N5CC(C)OC(C)C5)cn4)nn23)no1` (stereo not shown) [Compound 44], the kinetic solubility at 24 h was 74.6 µg/mL (≈ 141 µM).

`COCc1cc(-c2nnc3c4ccccc4c(OCc4ccc(C(=O)N(C)C5CC5)cn4)nn23)no1` [Compound 50] yielded a solubility (kinetic) at 24 h of 3.75 µg/mL (≈ 7.72 µM).

For `COCc1cc(-c2nnc3c4ccccc4c(OCc4ccc(C(=O)N5CCC(F)(F)C5)cn4)nn23)no1` [Compound 51], the kinetic solubility at 24 h is 5.62 µg/mL (≈ 10.8 µM). This solubility kinetic at 24 h and that of the compound before are within 1.5-fold of each other.

`COCCN(CCOC)C(=O)c1ccc(COc2nn3c(-c4cc(COC)on4)nnc3c3ccccc23)nc1` [Compound 52] displayed a kinetic solubility at 24 h of 51.9 µg/mL (≈ 94.7 µM).

Turning to `COCc1cc(-c2nnc3c4ccccc4c(OCc4ccc(C(=O)N5CCN(C)C(=O)C5)cn4)nn23)no1` [Compound 53], the solubility (kinetic) at 24 h worked out at 28 µg/mL (≈ 53 µM). Compared with the last compound, the solubility kinetic at 24 h is about 1.9-fold lower.

In the case of `COCc1cc(-c2nnc3c4ccccc4c(OCc4ccc(C(=O)N5CCCOCC5)cn4)nn23)no1` [Compound 55], the kinetic solubility at 24 h is 102 µg/mL (≈ 197 µM). This solubility kinetic at 24 h lies about 3.6-fold higher than the previous one.

For `COCc1cc(-c2nnc3c4ccccc4c(OCc4ccc(C(=O)N5CCC(OC)CC5)cn4)nn23)no1` [Compound 57, (6-(((3-(5-(methoxymethyl)isoxazol-3-yl)-[1,2,4]triazolo[3,4-a]phthalazin-6-yl)oxy)methyl)pyridin-3-yl)(4-methoxypiperidin-1-yl)methanone], the solubility (kinetic) at 24 h came to 26.5 µg/mL (≈ 50 µM).

With `COCc1cc(-c2nnc3c4ccccc4c(OCc4ccc(C(=O)N(C)CC(F)(F)F)cn4)nn23)no1` [Compound 58], the kinetic solubility at 24 h came out at 1.46 µg/mL (≈ 2.77 µM).

Take `Cc1cc(-c2nnc3c4ccccc4c(OCc4ccc(C(=O)NC5CCOCC5)cn4)nn23)no1` [reference compound]: the solubility (kinetic) at 24 h amounted to 3.88 µg/mL (≈ 7.99 µM). Against the preceding compound, the solubility kinetic at 24 h is about 2.7-fold higher.
